From patent publication US20160331798A1, “NATURAL PRODUCT INHIBITORS OF 3DG” (Dynamis Pharmaceuticals, Inc., priority 2008, published 2016)
Counter-ions that a name gives are not always drawn. Values belong to the compound of their own block, whether it stands above or below them.

Legend:
[1] = 3DG inactivation assay (3DG binding assay); conditions: for 3DG inactivating activity: summary of Table 3
Experimental: The following assay was used to determine inactivation of 3DG by various natural products and chemicals.
• 1. Dilute the samples with Reagent 1 to a volume of 1.9 ml and add 100 uL Reagent 6 to a total of 2 mL. • 2. Take 600 μL from each solution before incubation (as 0 day sample) • 3. Let sit for 24 hours and 72 hours at 37° and remove 600 μL for samples on day 1 and day 3) • 4.

[2] = animal models; cited from earlier work
[3] = in vivo; cited from earlier work

Compound: N=C(N)NN [Aminoguanidine]
AGEs-associated retinal, neural, arterial, and renal pathologies [2]: reduces

Compound: N[C@@H](CCCCNC[C@H](O)[C@@H](O)[C@@H](O)[C@H](O)CO)C(=O)O [galactitollysine]
urinary or plasma 3DG [3]: reduced

Compound: Cc1ncc(COP(=O)(O)O)c(C=O)c1O [Pyridoxal-5′-Phosphate]
3DG Conc ([1]; 2 mM, 1 day, 37°): 13.71 µM
3DG Conc ([1]; 2 mM, 3 days, 37°): 12.29 µM
3DG Conc ([1]; 6 mM, 1 day, 37°): 13.00 µM
3DG Conc ([1]; 6 mM, 3 days, 37°): 8.12 µM
3DG Conc ([1]; 12 mM, 1 day, 37°): 12.20 µM
3DG Conc ([1]; 12 mM, 3 days, 37°): 7.14 µM
3DG inactivating activity [1]: most amount of 3DG inactivating activity

Compound: N[C@@H](CCCCNC[C@H](O)[C@@H](O)[C@H](O)[C@H](O)CO)C(=O)O [sorbitollysine]
urinary or plasma 3DG [3]: reduced

Compound: N=C(N)NCCC[C@H](N)C(=O)O [Arginine]
3DG Conc ([1]; 2 mM, 1 day, 37°): 15.71 µM
3DG Conc ([1]; 2 mM, 3 days, 37°): 13.14 µM
3DG Conc ([1]; 6 mM, 1 day, 37°): 13.66 µM
3DG Conc ([1]; 6 mM, 3 days, 37°): 8.50 µM
3DG Conc ([1]; 12 mM, 1 day, 37°): 12.24 µM
3DG Conc ([1]; 12 mM, 3 days, 37°): 4.98 µM
3DG inactivating activity [1]: most amount of 3DG inactivating activity

Compound: CC(C)(CO)[C@@H](O)C(=O)NCCCO [Panthenol]
3DG Conc ([1]; 5 mM, 0 day): 19.54 µM
3DG Conc ([1]; 5 mM, 1 day, 37°): 18.10 µM
3DG Conc ([1]; 5 mM, 3 days, 37°): 19.51 µM
3DG Conc ([1]; 15 mM, 0 day): 18.08 µM
3DG Conc ([1]; 15 mM, 1 day, 37°): 17.74 µM
3DG Conc ([1]; 15 mM, 3 days, 37°): 16.84 µM
3DG Conc ([1]; 30 mM, 0 day): 18.91 µM
3DG Conc ([1]; 30 mM, 1 day, 37°): 17.67 µM
3DG Conc ([1]; 30 mM, 3 days, 37°): 17.63 µM

Compound: N[C@@H](CCCCNC[C@@H](O)[C@@H](O)[C@H](O)[C@H](O)CO)C(=O)O [mannitollysine]
urinary or plasma 3DG [3]: reduced

More lines, now with the values ahead:

3DG Conc ([1]; 2 mM, 0 day): 16.46 µM
3DG Conc ([1]; 2 mM, 1 day, 37°): 12.16 µM
3DG Conc ([1]; 2 mM, 3 days, 37°): 16.19 µM
3DG Conc ([1]; 6 mM, 0 day): 16.02 µM
3DG Conc ([1]; 6 mM, 1 day, 37°): 14.57 µM
3DG Conc ([1]; 6 mM, 3 days, 37°): 15.72 µM
3DG Conc ([1]; 12 mM, 0 day): 14.80 µM
3DG Conc ([1]; 12 mM, 1 day, 37°): 14.79 µM
3DG Conc ([1]; 12 mM, 3 days, 37°): 14.99 µM
Compound: Cc1ncc(CO)c(C=O)c1O.Cl [Pyridoxal-HCl]

3DG Conc ([1]; 5 mM, 1 day, 37°): 15.87 µM
3DG Conc ([1]; 5 mM, 3 days, 37°): 16.45 µM
3DG Conc ([1]; 15 mM, 1 day, 37°): 18.90 µM
3DG Conc ([1]; 15 mM, 3 days, 37°): 14.19 µM
3DG Conc ([1]; 30 mM, 1 day, 37°): 17.20 µM
3DG Conc ([1]; 30 mM, 3 days, 37°): 14.85 µM
Compound: Thiamine nitrate

3DG Conc ([1]; 5 mM, 0 day): 25.15 µM
3DG Conc ([1]; 5 mM, 1 day, 37°): 43.42 µM
3DG Conc ([1]; 5 mM, 3 days, 37°): 82.33 µM
3DG Conc ([1]; 15 mM, 0 day): 36.00 µM
3DG Conc ([1]; 15 mM, 1 day, 37°): 122.14 µM
3DG Conc ([1]; 15 mM, 3 days, 37°): 181.09 µM
3DG Conc ([1]; 30 mM, 0 day): 56.87 µM
3DG Conc ([1]; 30 mM, 1 day, 37°): 183.92 µM
3DG Conc ([1]; 30 mM, 3 days, 37°): 173.60 µM
Compound: Cl.N[C@H]1C(O)O[C@H](CO)[C@@H](O)[C@@H]1O (stereo partly drawn) [Glucosamine HCl, D-Glucosamine HCl]

3DG Conc ([1]; 5 mM, 1 day, 37°): 13.75 µM
3DG Conc ([1]; 5 mM, 3 days, 37°): 11.86 µM
3DG Conc ([1]; 15 mM, 1 day, 37°): 13.99 µM
3DG Conc ([1]; 15 mM, 3 days, 37°): 10.18 µM
3DG Conc ([1]; 30 mM, 1 day, 37°): 17.26 µM
3DG Conc ([1]; 30 mM, 3 days, 37°): 12.64 µM
Compound: O=C1O[C@H]([C@@H](O)CO)C(O)=C1O [Ascorbic Acid]

3DG Conc ([1]; 5 mM, 0 day): 20.96 µM
3DG Conc ([1]; 5 mM, 1 day, 37°): 24.16 µM
3DG Conc ([1]; 5 mM, 3 days, 37°): 22.02 µM
3DG Conc ([1]; 15 mM, 0 day): 18.06 µM
3DG Conc ([1]; 15 mM, 1 day, 37°): 18.98 µM
3DG Conc ([1]; 15 mM, 3 days, 37°): 19.21 µM
3DG Conc ([1]; 30 mM, 0 day): 19.25 µM
3DG Conc ([1]; 30 mM, 1 day, 37°): 17.42 µM
3DG Conc ([1]; 30 mM, 3 days, 37°): 16.87 µM
Compound: NC[C@H]1CC[C@H](C(=O)O)CC1 [Tranexamic Acid, reference compound]

3DG Conc ([1]; 5 mM, 1 day, 37°): 17.51 µM
3DG Conc ([1]; 5 mM, 3 days, 37°): 16.27 µM
3DG Conc ([1]; 15 mM, 1 day, 37°): 16.58 µM
3DG Conc ([1]; 15 mM, 3 days, 37°): 17.52 µM
3DG Conc ([1]; 30 mM, 1 day, 37°): 15.39 µM
3DG Conc ([1]; 30 mM, 3 days, 37°): 15.87 µM
Compound: CNC[C@H](O)[C@@H](O)[C@H](O)[C@H](O)CO.Cl [Meglumine-HCl, reference compound]

3DG Conc ([1]; 5 mM, 1 day, 37°): 16.27 µM
3DG Conc ([1]; 5 mM, 3 days, 37°): 14.49 µM
3DG Conc ([1]; 15 mM, 1 day, 37°): 14.83 µM
3DG Conc ([1]; 15 mM, 3 days, 37°): 14.81 µM
3DG Conc ([1]; 30 mM, 1 day, 37°): 17.76 µM
3DG Conc ([1]; 30 mM, 3 days, 37°): 14.89 µM
Compound: Cc1ncc(C[n+]2csc(CCO)c2C)c(N)n1 [Thiamine-HCl]

3DG Conc ([1]; 2 mM, 0 day): 16.32 µM
3DG Conc ([1]; 2 mM, 1 day, 37°): 14.82 µM
3DG Conc ([1]; 2 mM, 3 days, 37°): 16.35 µM
3DG Conc ([1]; 6 mM, 0 day): 16.13 µM
3DG Conc ([1]; 6 mM, 1 day, 37°): 16.67 µM
3DG Conc ([1]; 6 mM, 3 days, 37°): 15.83 µM
3DG Conc ([1]; 12 mM, 0 day): 15.90 µM
3DG Conc ([1]; 12 mM, 1 day, 37°): 15.85 µM
3DG Conc ([1]; 12 mM, 3 days, 37°): 15.44 µM
Compound: Cc1ncc(CO)c(CO)c1O [Pyridoxine]

3DG Conc ([1]; 2.5 mM, 1 day, 37°): 17.27 µM
3DG Conc ([1]; 2.5 mM, 3 days, 37°): 16.18 µM
3DG Conc ([1]; 5 mM, 0 day): 21.06 µM
3DG Conc ([1]; 5 mM, 1 day, 37°): 18.13 µM
3DG Conc ([1]; 5 mM, 3 days, 37°): 17.96 µM
3DG Conc ([1]; 7.5 mM, 1 day, 37°): 16.92 µM
3DG Conc ([1]; 7.5 mM, 3 days, 37°): 15.37 µM
3DG Conc ([1]; 12.5 mM, 1 day, 37°): 18.58 µM
3DG Conc ([1]; 12.5 mM, 3 days, 37°): 14.57 µM
3DG Conc ([1]; 15 mM, 0 day): 22.86 µM
3DG Conc ([1]; 15 mM, 1 day, 37°): 18.84 µM
3DG Conc ([1]; 15 mM, 3 days, 37°): 16.95 µM
3DG Conc ([1]; 30 mM, 0 day): 22.09 µM
3DG Conc ([1]; 30 mM, 1 day, 37°): 19.56 µM
3DG Conc ([1]; 30 mM, 3 days, 37°): 19.17 µM
Compound: CC(C)(CO)[C@@H](O)C(=O)NCCC(=O)[O-].CC(C)(CO)[C@@H](O)C(=O)NCCC(=O)[O-].[Ca+2] [Calcium Panthenate]

3DG Conc ([1]; 2 mM, 1 day, 37°): 16.85 µM
3DG Conc ([1]; 2 mM, 3 days, 37°): 15.58 µM
3DG Conc ([1]; 5 mM, 1 day, 37°): 16.18 µM
3DG Conc ([1]; 5 mM, 3 days, 37°): 14.58 µM
3DG Conc ([1]; 6 mM, 1 day, 37°): 15.96 µM
3DG Conc ([1]; 6 mM, 3 days, 37°): 16.93 µM
3DG Conc ([1]; 12 mM, 1 day, 37°): 15.05 µM
3DG Conc ([1]; 12 mM, 3 days, 37°): 12.37 µM
3DG Conc ([1]; 15 mM, 1 day, 37°): 16.90 µM
3DG Conc ([1]; 15 mM, 3 days, 37°): 15.39 µM
3DG Conc ([1]; 30 mM, 1 day, 37°): 18.45 µM
3DG Conc ([1]; 30 mM, 3 days, 37°): 13.97 µM
Compound: NCCC(=O)N[C@@H](Cc1cnc[nH]1)C(=O)O [Carnosine]
